The target in one assay is T1, Human AhR (Homo sapiens, UniProt P35869).
T1 construct: host or cells: U87 glioblastoma cells, stably transfected with a DRE firefly luciferase reporter and a constitutive renilla reporter
T1 sequence (P35869 11-848): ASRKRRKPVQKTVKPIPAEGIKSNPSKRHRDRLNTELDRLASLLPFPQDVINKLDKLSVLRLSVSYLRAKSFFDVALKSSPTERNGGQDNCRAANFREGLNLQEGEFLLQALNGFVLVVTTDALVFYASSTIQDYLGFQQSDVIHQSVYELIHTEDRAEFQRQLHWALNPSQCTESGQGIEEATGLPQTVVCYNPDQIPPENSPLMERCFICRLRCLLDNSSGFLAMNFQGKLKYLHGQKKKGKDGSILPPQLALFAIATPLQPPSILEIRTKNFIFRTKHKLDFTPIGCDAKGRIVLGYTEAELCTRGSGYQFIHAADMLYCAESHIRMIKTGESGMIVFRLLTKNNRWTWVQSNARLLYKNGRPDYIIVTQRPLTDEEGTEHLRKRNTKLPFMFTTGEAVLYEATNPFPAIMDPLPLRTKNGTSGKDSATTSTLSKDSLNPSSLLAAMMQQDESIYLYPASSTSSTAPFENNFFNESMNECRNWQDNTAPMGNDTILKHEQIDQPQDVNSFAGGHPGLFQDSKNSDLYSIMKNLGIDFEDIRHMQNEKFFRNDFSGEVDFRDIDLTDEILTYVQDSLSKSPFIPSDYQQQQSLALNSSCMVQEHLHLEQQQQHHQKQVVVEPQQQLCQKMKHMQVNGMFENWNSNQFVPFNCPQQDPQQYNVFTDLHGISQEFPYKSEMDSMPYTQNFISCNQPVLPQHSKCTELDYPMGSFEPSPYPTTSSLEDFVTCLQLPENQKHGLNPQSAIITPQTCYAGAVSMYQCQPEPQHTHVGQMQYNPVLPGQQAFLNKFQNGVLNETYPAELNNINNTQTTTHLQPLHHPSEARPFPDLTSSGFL
The assay can be described thus: Transactivation assay in human cell line (in vitro assay 1): antagonism. In kind it is cell-based. Conditions: U87 glioblastoma cells, AHR inducible firefly luciferase reporter (DRE), 150 μM kynurenic acid, 20 hours. As for the experimental part: (§1) Examples were tested in selected biological assays one or more times. When tested more than once, data are reported as either average values or as median values, wherein • the average value, also referred to as the arithmetic mean value, represents the sum of the values obtained divided by the number of times tested, and • the median value represents the middle number of the group of values when ranked in ascending or descending order. If the number of values in the data set is odd, the median is the middle value. If the number of values in the data set is even, the median is the arithmetic mean of the two middle values.
Transactivation Assay in Human Cell Line (In Vitro Assay 1)
Transactivation assay was carried out in U87 glioblastoma cells (ATCC) endogenously expressing AHR. In addition the cells were stably transfected with an AHR inducible firefly luciferase reporter gene construct that carried AHR-binding sites (DRE) in its promoter and a renilla reporter gene construct with constitutively active promoter. Kynurenic acid is an endogenous AHR activating ligand and was used to prestimulate test cells prior to testing the antagonistic properties of compounds.
In Vitro Assay 1: Antagonism in Human Cell Line
Firefly luciferase and Renilla activity was determined by the DualGlo Luciferase Assay System (Promega, #2920). Renilla activity was used to assess toxic effects of compounds.
A general note: Reporter assays use an easily measured gene product as a stand-in for the process of interest.

In another assay the target is T2, Mouse AhR (Mus musculus, UniProt P30561).
T2 sequence (P30561 1-848 P471L/N533S/M589L): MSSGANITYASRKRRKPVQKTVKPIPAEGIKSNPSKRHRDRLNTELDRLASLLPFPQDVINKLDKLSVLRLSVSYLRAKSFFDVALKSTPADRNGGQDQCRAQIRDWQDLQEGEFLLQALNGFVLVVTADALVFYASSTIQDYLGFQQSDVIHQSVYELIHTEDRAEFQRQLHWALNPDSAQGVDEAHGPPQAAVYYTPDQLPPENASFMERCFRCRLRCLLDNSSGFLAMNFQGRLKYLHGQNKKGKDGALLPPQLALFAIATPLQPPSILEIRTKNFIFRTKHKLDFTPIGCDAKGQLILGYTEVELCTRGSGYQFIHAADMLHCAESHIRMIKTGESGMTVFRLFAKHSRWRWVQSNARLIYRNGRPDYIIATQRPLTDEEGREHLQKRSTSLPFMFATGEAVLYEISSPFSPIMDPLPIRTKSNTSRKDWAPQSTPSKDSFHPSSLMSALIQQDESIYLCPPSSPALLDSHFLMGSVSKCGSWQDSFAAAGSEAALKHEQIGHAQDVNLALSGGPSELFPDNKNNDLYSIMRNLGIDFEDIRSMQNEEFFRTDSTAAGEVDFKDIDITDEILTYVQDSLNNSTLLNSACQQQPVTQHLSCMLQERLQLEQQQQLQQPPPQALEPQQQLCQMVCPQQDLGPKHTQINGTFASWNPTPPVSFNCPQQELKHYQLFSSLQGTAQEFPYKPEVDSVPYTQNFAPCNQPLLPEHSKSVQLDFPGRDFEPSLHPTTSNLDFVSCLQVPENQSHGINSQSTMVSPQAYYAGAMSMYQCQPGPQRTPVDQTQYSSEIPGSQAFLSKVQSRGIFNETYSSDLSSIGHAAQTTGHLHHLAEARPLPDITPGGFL
The assay can be described thus: Transactivation assay in mouse cell line (in vitro assay 2): antagonism. Particulars: Hepa 1c1c7 cells, AHR inducible firefly luciferase reporter (DRE), 200 μM kynurenic acid, 20 hours. The assay is classed as cell-based. The protocol:
as §1
Transactivation Assay in Mouse Cell Line (In Vitro Assay 2)
Transactivation assay was carried out in Hepa 1c1c7 cells (ATCC #CRL-2026) endogenously expressing AHR. In addition the cells were stably transfected with an AHR inducible firefly luciferase reporter gene construct that carried AHR-binding sites (DRE) in its promoter. Kynurenic acid is an endogenous AHR activating ligand and was used to prestimulate test cells prior to testing the antagonistic properties of compounds.
In Vitro Assay 2: Antagonism in Mouse Cell Line
Firefly luciferase activity was determined by the SteadyGlo Luciferase Assay System (Promega, #E2550).

This note sets out measurements from patent publication US11524944B2, “2-phenylpyrimidine-4-carboxamides as AHR inhibitors” (Bayer Aktiengesellschaft, priority 2017, dated 2022).

Bounds are passed on as bounds.

For the compound `C[C@@H](CO)NC(=O)c1cc(-c2ccc(OC(F)(F)F)cc2)nc(-c2ccc(F)c(Cl)c2)n1` [Example 33, 2-(3-chloro-4-fluorophenyl)-N-[(2S)-1-hydroxypropan-2-yl]-6-[4-(trifluoromethoxy)phenyl]pyrimidine-4-carboxamide], the results for the half-inhibitory concentration (IC50) against Human AhR and against Mouse AhR were 98.4 nM and 397 nM, respectively.
For `C[C@@H](CO)NC(=O)c1cc(-c2ccc(OC(F)(F)F)cc2)nc(-c2cccc(C#N)c2)n1` [Example 36, 2-(3-cyanophenyl)-N-[(2S)-1-hydroxypropan-2-yl]-6-[4-(trifluoromethoxy)phenyl]pyrimidine-4-carboxamide], in that order: 18.4 nM and 180 nM.
Consider `Cc1cc(F)cc(-c2nc(C(=O)N[C@@H](C)CO)cc(-c3ccc(OC(F)(F)F)cc3)n2)c1` [Example 41, 2-(3-fluoro-5-methylphenyl)-N-[(2S)-1-hydroxypropan-2-yl]-6-[4-(trifluoromethoxy)phenyl]pyrimidine-4-carboxamide], for which the IC50 – broadly, the midpoint of a concentration-inhibition curve – against Human AhR was found to be 29.5 nM; on Mouse AhR, 191 nM.
For `C[C@@H](CO)NC(=O)c1cc(-c2ccc(OC(F)(F)F)cc2)nc(-c2ccc(C(F)F)cc2)n1` [Example 42, 2-[4-(difluoromethyl)phenyl]-N-[(2S)-1-hydroxypropan-2-yl]-6-[4-(trifluoromethoxy)phenyl]pyrimidine-4-carboxamide], in that order: 1100 nM and 1100 nM.
In the same order, the values of `CC(C)(O)CNC(=O)c1cc(-c2ccc(Cl)cc2)nc(-c2ccc(F)cc2)n1` [Example 45, 6-(4-chlorophenyl)-2-(4-fluorophenyl)-N-(2-hydroxy-2-methylpropyl)pyrimidine-4-carboxamide] are 24.4 nM and 161 nM.
In the same order, the values of `CC(C)(O)CNC(=O)c1cc(-c2ccc(Cl)cc2)nc(-c2cc(Cl)cc(Cl)c2)n1` [Example 51, 6-(4-chlorophenyl)-2-(3,5-dichlorophenyl)-N-(2-hydroxy-2-methylpropyl)pyrimidine-4-carboxamide] are 101 nM and 3090 nM.
Regarding `CC(C)(O)CNC(=O)c1cc(-c2ccc(Cl)cc2)nc(-c2ccc(C(F)F)cc2)n1` [Example 61, 6-(4-chlorophenyl)-2-[4-(difluoromethyl)phenyl]-N-(2-hydroxy-2-methylpropyl)pyrimidine-4-carboxamide], the IC50 was over 20000 nM on Human AhR and 7120 nM on Mouse AhR.
In the same order, the values of `COc1ccc(-c2nc(C(=O)N[C@@H](C)CO)cc(-c3ccc(Cl)cc3)n2)cc1` [Example 63, 6-(4-chlorophenyl)-N-[(2S)-1-hydroxypropan-2-yl]-2-(4-methoxyphenyl)pyrimidine-4-carboxamide] are 392 nM and 5150 nM.
For `Cc1cccc(-c2nc(C(=O)N[C@@H](C)CO)cc(-c3ccc(Cl)cc3)n2)c1` [Example 64, 6-(4-chlorophenyl)-N-[(2S)-1-hydroxypropan-2-yl]-2-(3-methylphenyl)pyrimidine-4-carboxamide], in that order: 7.2 nM and 52.6 nM.
In the same order, the values of `Cc1cc(-c2nc(C(=O)N[C@@H](C)CO)cc(-c3ccc(Cl)cc3)n2)ccc1F` [Example 65, 6-(4-chlorophenyl)-2-(4-fluoro-3-methylphenyl)-N-[(2S)-1-hydroxypropan-2-yl]pyrimidine-4-carboxamide] are 48.5 nM and 134 nM.
For `C[C@@H](CO)NC(=O)c1cc(-c2ccc(Cl)cc2)nc(-c2ccc(F)c(Cl)c2)n1` [Example 66, 2-(3-chloro-4-fluorophenyl)-6-(4-chlorophenyl)-N-[(2S)-1-hydroxypropan-2-yl]pyrimidine-4-carboxamide], the IC50 at Human AhR amounted to 23.5 nM; on Mouse AhR, 148 nM.
In the same order, the values of `C[C@@H](CO)NC(=O)c1cc(-c2ccc(Cl)cc2)nc(-c2cccc(C#N)c2)n1` [Example 70, 6-(4-chlorophenyl)-2-(3-cyanophenyl)-N-[(2S)-1-hydroxypropan-2-yl]pyrimidine-4-carboxamide] are 19.3 nM and 215 nM.
In the same order, the values of `COc1cc(F)cc(-c2nc(C(=O)N[C@@H](C)CO)cc(-c3ccc(Cl)cc3)n2)c1` [Example 76, 6-(4-chlorophenyl)-2-(3-fluoro-5-methoxyphenyl)-N-[(2S)-1-hydroxypropan-2-yl]pyrimidine-4-carboxamide] are 36.8 nM and 81.5 nM.
For the compound `CC(NC(=O)c1cc(-c2ccc(OC(F)(F)F)cc2)nc(-c2cccc(F)c2)n1)C(O)CO` (stereo not drawn) [Example 79, N-(3,4-dihydroxybutan-2-yl)-2-(3-fluorophenyl)-6-[4-(trifluoromethoxy)phenyl]pyrimidine-4-carboxamide], the IC50 on Human AhR turned out to be 5.3 nM; against Mouse AhR, 2.37 nM.
For `O=C(NC1CCCC(F)(F)C1O)c1cc(-c2ccc(OC(F)(F)F)cc2)nc(-c2cccc(F)c2)n1` (stereo not drawn) [Example 80, N-(3,3-difluoro-2-hydroxycyclohexyl)-2-(3-fluorophenyl)-6-[4-(trifluoromethoxy)phenyl]pyrimidine-4-carboxamide], in that order: 6.43 nM and 6.91 nM.
